Reference: ChEMBL document CHEMBL4028801, “A multifactorial approach to hepatobiliary transporter assessment enables improved therapeutic compound development” (Toxicol Sci, 2013)

Key:
[1] = target: ATP-binding cassette sub-family C member 3 (Homo sapiens, UniProt O15438); experiment: Inhibition of human MRP3 overexpressed in Sf9 insect cell membrane vesicles assessed as uptake of [3H]-estradiol-17beta-D-glucuronide in presence of ATP and GSH measured after 10 mins by membrane vesicle transport assay; assay type: ADME, cell-based
ATP-binding cassette sub-family C member 3, sequence (O15438 whole entry): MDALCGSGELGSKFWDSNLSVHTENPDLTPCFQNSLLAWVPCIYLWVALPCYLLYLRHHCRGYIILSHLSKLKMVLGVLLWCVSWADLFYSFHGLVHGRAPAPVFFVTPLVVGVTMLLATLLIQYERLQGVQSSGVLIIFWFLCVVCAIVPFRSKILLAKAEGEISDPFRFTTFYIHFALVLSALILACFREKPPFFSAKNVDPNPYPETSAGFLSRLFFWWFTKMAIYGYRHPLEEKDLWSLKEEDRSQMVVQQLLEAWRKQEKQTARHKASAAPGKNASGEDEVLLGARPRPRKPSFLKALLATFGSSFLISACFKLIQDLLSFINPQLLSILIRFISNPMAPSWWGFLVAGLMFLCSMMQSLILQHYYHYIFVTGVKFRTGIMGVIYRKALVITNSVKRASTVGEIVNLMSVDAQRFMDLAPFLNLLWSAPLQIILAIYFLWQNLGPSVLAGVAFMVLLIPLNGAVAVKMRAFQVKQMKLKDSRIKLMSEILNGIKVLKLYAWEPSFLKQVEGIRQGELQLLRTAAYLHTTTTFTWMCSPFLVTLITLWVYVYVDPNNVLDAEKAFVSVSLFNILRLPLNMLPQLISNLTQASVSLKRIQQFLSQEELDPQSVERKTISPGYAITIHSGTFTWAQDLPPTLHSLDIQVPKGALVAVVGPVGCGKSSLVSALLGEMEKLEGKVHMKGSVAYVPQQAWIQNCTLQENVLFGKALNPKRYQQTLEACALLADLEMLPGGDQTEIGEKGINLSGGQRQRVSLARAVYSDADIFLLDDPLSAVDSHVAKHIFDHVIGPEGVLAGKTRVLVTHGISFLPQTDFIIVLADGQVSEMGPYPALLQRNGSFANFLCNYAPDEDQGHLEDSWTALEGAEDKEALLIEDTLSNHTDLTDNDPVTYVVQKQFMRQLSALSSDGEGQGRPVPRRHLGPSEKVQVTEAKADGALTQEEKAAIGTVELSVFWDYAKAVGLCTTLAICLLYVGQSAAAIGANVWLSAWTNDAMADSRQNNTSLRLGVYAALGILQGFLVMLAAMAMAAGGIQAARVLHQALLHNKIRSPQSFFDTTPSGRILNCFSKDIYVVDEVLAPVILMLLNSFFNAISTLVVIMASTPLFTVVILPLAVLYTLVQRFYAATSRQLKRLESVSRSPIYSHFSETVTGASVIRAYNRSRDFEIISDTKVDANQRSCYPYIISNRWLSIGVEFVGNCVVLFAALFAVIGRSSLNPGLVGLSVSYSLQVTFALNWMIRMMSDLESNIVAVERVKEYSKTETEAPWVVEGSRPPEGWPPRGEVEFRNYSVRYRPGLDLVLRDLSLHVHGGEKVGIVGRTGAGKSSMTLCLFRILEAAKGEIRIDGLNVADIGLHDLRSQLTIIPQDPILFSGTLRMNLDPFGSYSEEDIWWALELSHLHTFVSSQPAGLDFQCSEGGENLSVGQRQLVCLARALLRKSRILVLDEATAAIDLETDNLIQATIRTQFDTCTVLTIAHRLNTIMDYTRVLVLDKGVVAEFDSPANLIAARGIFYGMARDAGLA

[2] = Drug concentration at steady state in human at 2 g, po QD after 24 hrs; assay type: ADME, organism-based; settings: in vivo, read-out: Css
[3] = target: ATP-binding cassette sub-family C member 2 (Homo sapiens, UniProt Q92887); experiment: Inhibition of human MRP2 overexpressed in Sf9 cell membrane vesicles assessed as uptake of [3H]-estradiol-17beta-D-glucuronide in presence of ATP and GSH measured after 20 mins by membrane vesicle transport assay
ATP-binding cassette sub-family C member 2, sequence (Q92887 whole entry): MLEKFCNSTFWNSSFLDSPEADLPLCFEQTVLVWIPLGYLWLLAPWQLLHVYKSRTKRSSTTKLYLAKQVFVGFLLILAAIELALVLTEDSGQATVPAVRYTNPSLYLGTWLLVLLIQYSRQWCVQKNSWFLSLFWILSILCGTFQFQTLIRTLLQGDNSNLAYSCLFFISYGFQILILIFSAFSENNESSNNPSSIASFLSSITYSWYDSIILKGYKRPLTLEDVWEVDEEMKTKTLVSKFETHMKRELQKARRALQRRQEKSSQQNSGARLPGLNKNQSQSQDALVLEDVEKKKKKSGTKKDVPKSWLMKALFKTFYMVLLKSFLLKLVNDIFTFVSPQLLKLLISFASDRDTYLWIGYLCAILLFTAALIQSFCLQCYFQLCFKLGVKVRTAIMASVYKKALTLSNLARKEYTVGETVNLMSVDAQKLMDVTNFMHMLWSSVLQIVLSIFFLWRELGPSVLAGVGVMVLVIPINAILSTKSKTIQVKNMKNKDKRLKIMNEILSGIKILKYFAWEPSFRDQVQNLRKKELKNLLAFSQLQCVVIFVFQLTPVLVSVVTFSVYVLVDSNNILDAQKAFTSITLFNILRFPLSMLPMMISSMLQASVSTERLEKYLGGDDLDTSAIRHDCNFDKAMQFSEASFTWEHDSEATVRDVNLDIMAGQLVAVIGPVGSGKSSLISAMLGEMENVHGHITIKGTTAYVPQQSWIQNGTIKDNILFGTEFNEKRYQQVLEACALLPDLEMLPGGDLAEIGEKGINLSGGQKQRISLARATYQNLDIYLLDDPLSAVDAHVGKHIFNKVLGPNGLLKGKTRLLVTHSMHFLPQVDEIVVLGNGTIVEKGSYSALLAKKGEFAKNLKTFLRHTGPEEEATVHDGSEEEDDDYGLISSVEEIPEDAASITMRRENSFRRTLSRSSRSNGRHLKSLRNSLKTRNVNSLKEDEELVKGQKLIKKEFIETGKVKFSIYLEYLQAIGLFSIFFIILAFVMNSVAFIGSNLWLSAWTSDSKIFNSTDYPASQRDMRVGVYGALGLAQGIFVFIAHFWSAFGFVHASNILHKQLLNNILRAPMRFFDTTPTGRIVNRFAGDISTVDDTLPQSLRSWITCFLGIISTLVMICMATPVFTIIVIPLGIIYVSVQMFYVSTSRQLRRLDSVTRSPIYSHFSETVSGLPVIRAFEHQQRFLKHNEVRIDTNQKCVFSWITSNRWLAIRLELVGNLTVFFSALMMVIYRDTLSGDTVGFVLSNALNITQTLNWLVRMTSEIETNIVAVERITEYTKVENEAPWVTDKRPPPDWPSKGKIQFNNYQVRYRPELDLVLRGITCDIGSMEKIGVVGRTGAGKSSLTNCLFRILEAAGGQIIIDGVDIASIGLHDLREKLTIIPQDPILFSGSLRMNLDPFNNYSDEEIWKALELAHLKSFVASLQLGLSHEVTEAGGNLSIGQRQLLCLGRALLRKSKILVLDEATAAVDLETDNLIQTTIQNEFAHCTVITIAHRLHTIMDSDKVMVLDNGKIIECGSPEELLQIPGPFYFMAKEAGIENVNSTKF

[4] = target: T1, ATP-binding cassette sub-family C member 4 (Homo sapiens, UniProt O15439); experiment: Inhibition of human MRP4 overexpressed in Sf9 cell membrane vesicles assessed as uptake of [3H]-estradiol-17beta-D-glucuronide in presence of ATP and GSH measured after 20 mins by membrane vesicle transport assay; assay type: ADME, cell-based
T1 sequence (O15439 whole entry): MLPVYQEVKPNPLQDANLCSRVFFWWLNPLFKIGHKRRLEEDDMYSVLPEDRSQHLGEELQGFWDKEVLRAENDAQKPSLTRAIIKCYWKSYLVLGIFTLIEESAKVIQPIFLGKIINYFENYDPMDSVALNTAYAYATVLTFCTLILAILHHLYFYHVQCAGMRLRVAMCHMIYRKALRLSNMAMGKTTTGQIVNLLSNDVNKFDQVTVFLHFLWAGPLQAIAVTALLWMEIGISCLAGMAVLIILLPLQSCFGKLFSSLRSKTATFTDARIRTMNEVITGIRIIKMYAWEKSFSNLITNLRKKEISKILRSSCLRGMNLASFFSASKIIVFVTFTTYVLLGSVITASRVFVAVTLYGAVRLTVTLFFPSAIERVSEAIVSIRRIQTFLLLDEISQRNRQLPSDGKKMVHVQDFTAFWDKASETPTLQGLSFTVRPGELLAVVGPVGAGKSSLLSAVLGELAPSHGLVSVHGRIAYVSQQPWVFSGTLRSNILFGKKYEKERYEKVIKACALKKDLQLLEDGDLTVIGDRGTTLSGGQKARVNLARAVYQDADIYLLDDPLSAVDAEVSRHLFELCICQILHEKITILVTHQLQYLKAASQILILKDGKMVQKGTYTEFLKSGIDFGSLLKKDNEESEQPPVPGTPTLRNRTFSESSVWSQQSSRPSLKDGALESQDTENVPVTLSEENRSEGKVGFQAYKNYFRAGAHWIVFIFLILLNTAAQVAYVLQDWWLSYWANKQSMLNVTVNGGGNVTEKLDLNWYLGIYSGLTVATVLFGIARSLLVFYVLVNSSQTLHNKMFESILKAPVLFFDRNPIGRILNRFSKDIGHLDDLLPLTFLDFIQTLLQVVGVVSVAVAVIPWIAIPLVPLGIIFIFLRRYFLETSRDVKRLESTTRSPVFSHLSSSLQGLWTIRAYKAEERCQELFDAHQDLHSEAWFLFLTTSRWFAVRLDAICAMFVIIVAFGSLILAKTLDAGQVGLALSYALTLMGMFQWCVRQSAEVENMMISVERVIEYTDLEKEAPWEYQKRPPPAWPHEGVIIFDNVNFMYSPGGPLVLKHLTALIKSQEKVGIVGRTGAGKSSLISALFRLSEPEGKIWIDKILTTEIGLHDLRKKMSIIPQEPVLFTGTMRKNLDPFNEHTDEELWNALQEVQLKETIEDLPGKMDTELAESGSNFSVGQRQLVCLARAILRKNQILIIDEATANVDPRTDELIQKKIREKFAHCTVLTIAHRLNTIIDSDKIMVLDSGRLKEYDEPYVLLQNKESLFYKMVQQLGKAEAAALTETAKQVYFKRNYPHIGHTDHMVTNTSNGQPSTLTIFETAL

[5] = AUC in human at 2 g, po QD after 24 hrs; assay type: ADME, organism-based; parameters: dose 2 g, time < 24 hr, route oral; settings: in vivo
[6] = Ratio of drug concentration at steady state in human at 2 g, po QD after 24 hrs to IC50 for human BSEP overexpressed in Sf9 insect cells; assay type: ADME, organism-based; settings: in vivo
Bile salt export pump = Bile salt export pump (Homo sapiens, UniProt O95342); experiment: Inhibition of human BSEP overexpressed in Sf9 cell membrane vesicles assessed as uptake of [3H]-taurocholate in presence of ATP measured after 15 to 20 mins by membrane vesicle transport assay; assay type: ADME, cell-based
Bile salt export pump, sequence (O95342 whole entry): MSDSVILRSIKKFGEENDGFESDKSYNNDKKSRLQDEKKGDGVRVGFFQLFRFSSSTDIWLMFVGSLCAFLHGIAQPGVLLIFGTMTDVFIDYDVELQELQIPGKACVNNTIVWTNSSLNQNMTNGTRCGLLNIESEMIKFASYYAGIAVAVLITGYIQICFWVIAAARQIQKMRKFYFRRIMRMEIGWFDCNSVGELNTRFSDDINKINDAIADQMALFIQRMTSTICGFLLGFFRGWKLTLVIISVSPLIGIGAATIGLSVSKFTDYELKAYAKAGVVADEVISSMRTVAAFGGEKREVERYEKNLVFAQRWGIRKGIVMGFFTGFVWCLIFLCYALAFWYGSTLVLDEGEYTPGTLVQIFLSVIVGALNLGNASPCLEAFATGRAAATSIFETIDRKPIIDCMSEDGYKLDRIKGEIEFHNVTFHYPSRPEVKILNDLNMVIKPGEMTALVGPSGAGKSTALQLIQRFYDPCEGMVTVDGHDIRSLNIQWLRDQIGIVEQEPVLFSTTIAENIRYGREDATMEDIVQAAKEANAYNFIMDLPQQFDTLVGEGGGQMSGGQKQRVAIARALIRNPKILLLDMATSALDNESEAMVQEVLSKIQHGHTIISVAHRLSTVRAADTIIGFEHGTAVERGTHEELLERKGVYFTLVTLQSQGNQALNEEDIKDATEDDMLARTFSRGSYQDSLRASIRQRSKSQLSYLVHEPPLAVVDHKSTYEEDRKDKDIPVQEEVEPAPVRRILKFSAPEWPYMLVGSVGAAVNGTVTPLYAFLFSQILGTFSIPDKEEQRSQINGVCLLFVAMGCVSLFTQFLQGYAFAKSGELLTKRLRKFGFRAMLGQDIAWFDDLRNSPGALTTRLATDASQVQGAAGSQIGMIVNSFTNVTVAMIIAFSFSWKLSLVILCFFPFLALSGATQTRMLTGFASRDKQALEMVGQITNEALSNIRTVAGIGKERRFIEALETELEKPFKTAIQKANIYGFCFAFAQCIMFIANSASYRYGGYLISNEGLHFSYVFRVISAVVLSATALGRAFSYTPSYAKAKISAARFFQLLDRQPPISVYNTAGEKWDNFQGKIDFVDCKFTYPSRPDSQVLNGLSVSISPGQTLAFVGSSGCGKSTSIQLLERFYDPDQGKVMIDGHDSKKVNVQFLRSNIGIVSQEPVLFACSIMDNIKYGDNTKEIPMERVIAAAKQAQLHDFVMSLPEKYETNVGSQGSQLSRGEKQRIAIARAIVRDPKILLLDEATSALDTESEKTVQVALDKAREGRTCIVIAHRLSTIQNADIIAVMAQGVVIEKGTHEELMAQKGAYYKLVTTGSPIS

[7] = AUC in human at 150 to 300 mg, po QD after 24 hrs; assay type: ADME, organism-based; settings: in vivo
[8] = Ratio of drug concentration at steady state in human at 150 to 300 mg, po QD after 24 hrs to IC50 for human MRP4 overexpressed in Sf9 insect cells; assay type: ADME, organism-based; settings: in vivo
[9] = Ratio of drug concentration at steady state in human at 150 to 300 mg, po QD after 24 hrs to IC50 for human BSEP overexpressed in Sf9 insect cells; assay type: ADME, organism-based; settings: in vivo
[10] = Drug concentration at steady state in human at 150 to 300 mg, po QD after 24 hrs; assay type: ADME, organism-based; settings: in vivo, read-out: Css
[11] = Ratio of drug concentration at steady state in human at 150 to 300 mg, po QD after 24 hrs to IC50 for human MRP3 overexpressed in Sf9 insect cells; assay type: ADME, organism-based; settings: in vivo
[12] = Ratio of drug concentration at steady state in human at 75 to 100 mg, po QID after 6 hrs to IC50 for human BSEP overexpressed in Sf9 insect cells; assay type: ADME, organism-based; settings: in vivo
[13] = AUC in human at 75 to 100 mg, po QID after 6 hrs; assay type: ADME, organism-based; settings: in vivo
[14] = Ratio of drug concentration at steady state in human at 75 to 100 mg, po QID after 6 hrs to IC50 for human MRP4 overexpressed in Sf9 insect cells; assay type: ADME, organism-based; settings: in vivo
[15] = Drug concentration at steady state in human at 75 to 100 mg, po QID after 6 hrs; assay type: ADME, organism-based; settings: in vivo, read-out: Css
[16] = Ratio of drug concentration at steady state in human at 600 mg administered twice weekly followed by 600 mg administered once in a week measured after 84 hrs to IC50 for human MRP4 overexpressed in Sf9 insect cells; assay type: ADME; settings: in vivo
[17] = Drug concentration at steady state in human at 600 mg administered twice weekly followed by 600 mg administered once in a week measured after 84 hrs; assay type: ADME; settings: in vivo, read-out: Css
[18] = Ratio of drug concentration at steady state in human at 600 mg administered twice weekly followed by 600 mg administered once in a week measured after 84 hrs to IC50 for human BSEP overexpressed in Sf9 insect cells; assay type: ADME; settings: in vivo
[19] = Ratio of drug concentration at steady state in human at 600 mg administered twice weekly followed by 600 mg administered once in a week measured after 84 hrs to IC50 for human MRP2 overexpressed in Sf9 insect cells; assay type: ADME; settings: in vivo
[20] = AUC in human at 600 mg administered twice weekly followed by 600 mg administered once in a week measured after 84 hrs; assay type: ADME; parameters: dose 600 mg, time < 84 hr; settings: in vivo
[21] = Ratio of drug concentration at steady state in human at 600 mg administered twice weekly followed by 600 mg administered once in a week measured after 84 hrs to IC50 for human MRP3 overexpressed in Sf9 insect cells; assay type: ADME; settings: in vivo
[22] = Drug concentration at steady state in human at 1250 mg, po QD after 24 hrs; assay type: ADME, organism-based; settings: in vivo, read-out: Css
[23] = Ratio of drug concentration at steady state in human at 1250 mg, po QD after 24 hrs to IC50 for human BSEP overexpressed in Sf9 insect cells; assay type: ADME, organism-based; settings: in vivo
[24] = AUC in human at 1250 mg, po QD after 24 hrs; assay type: ADME, organism-based; parameters: time < 24 hr, dose 1250 mg, route oral; settings: in vivo

Question: For `CCOC(=O)C(C)(C)Oc1ccc(Cl)cc1` [CLOFIBRATE], which IC50 [1] is on record?
Answer: > 133 µM

Question: What about the concentration at 24 h [2] of the same compound?
Answer: 27.1 µM

Question: What about the IC50 [3] of the same compound?
Answer: > 133 µM

Question: What about the IC50 [4] of the same compound?
Answer: > 133 µM

Question: And the AUC at 24 h [5]?
Answer: 649 µM·h

Question: What about the Ratio [6] of the same compound?
Answer: 0.381

Question: And the IC50 (Bile salt export pump)?
Answer: 71 µM

Question: With `CCCCC1=NC2(CCCC2)C(=O)N1Cc1ccc(-c2ccccc2-c2nnn[nH]2)cc1` [IRBESARTAN] as the compound, how does the IC50 [1] read?
Answer: 21.1 µM

Question: And the AUC at 24 h [7]?
Answer: 52.9 µM·h

Question: What about the IC50 [4] of the same compound?
Answer: 83.2 µM

Question: And the Ratio [8]?
Answer: 0.026

Question: And the Ratio [9]?
Answer: 0.301

Question: What about the concentration at 24 h [10] of the same compound?
Answer: 2.2 µM

Question: And the IC50 (Bile salt export pump)?
Answer: 7.31 µM

Question: And the Ratio [11]?
Answer: 0.104

Question: What does the source list for `OCCN(CCO)c1nc(N2CCCCC2)c2nc(N(CCO)CCO)nc(N3CCCCC3)c2n1` [DIPYRIDAMOLE]?
Answer: IC50 [1]: > 133 µM; Ratio [12]: 0.303; IC50 [3]: > 133 µM; IC50 [4]: 8.3 µM; AUC at 6 h [13]: 6.82 µM·h; Ratio [14]: 0.137; IC50 (Bile salt export pump): 4 µM; concentration at 6 h [15]: 1.14 µM

Question: With `CO[C@H]1/C=C/O[C@@]2(C)Oc3c(C)c(O)c4c(O)c(c(/C=N/N5CCN(C6CCCC6)CC5)c(O)c4c3C2=O)NC(=O)/C(C)=C\C=C\[C@H](C)[C@H](O)[C@@H](C)[C@@H](O)[C@@H](C)[C@H](OC(C)=O)[C@@H]1C` [RIFAPENTINE] as the compound, how does the Ratio [16] read?
Answer: 0.131

Question: What about the IC50 [1] of the same compound?
Answer: 80.9 µM

Question: What about the concentration at 84 h [17] of the same compound?
Answer: 4.7 µM

Question: And the Ratio [18]?
Answer: 0.474

Question: And the IC50 [3]?
Answer: 16.3 µM

Question: And the Ratio [19]?
Answer: 0.288

Question: What about the IC50 [4] of the same compound?
Answer: 35.9 µM

Question: And the AUC at 84 h [20]?
Answer: 395 µM·h

Question: What about the Ratio [21] of the same compound?
Answer: 0.058

Question: And the IC50 (Bile salt export pump)?
Answer: 9.91 µM

Question: Which IC50 [1] does the source give for `CS(=O)(=O)CCNCc1ccc(-c2ccc3ncnc(Nc4ccc(OCc5cccc(F)c5)c(Cl)c4)c3c2)o1.Cc1ccc(S(=O)(=O)O)cc1` here?
Answer: > 133 µM

Question: What about the concentration at 24 h [22] of the same compound?
Answer: 2.6 µM

Question: What about the Ratio [23] of the same compound?
Answer: 0.4

Question: What about the IC50 [3] of the same compound?
Answer: > 133 µM

Question: What about the IC50 [4] of the same compound?
Answer: > 133 µM

Question: And the AUC at 24 h [24]?
Answer: 62.3 µM·h
